# Experimental data as given in patent publication US20240207421A1, “NERVE TARGETING PEPTIDES AND METHODS OF USE” (ALUME BIOSCIENCES, INC., priority 2020, published 2024).
# Key:
# [1] = system: Human MPZ; test: Phage display library screening (Example 2, Python script analysis), binding to Human MPZ; conditions: combined unique sequence count, Python/R script analysis
# Experimental: Phage display library screens were used to identify peptides that bind to target proteins (including specific laminin trimers) that are expressed in human nerves, as described in Table 3. These screens were also carried out to identify peptides that could bind selectively to nerves versus muscle. Such peptides could therefore be useful for systemic in-vivo labeling of nerves during fluorescence assisted surgery. Specifically, m 13 phage libraries expressing 7 or 12 random amino acid peptides, or a cyclic peptide CX7C, on the N-terminus of the minor coat protein pIII (New England Biolabs; NEB) were processed through multiple rounds of selection for binding to target proteins expressed in nerves, or to excised human nerves, nerve extracts, or muscle, as described further below.
# For screening against the specified target proteins in Table 1, including LN211, LN411, LN421, and LN521, the phage library was processed by up to 4 binding and wash cycles. For selection, phage libraries were incubated for up to 24 hours at 4° C. in 96 well plates that had been coated with one of the target proteins. Plates were then washed with PBS and phage were eluted using 0.2M glycine pH 2.0. Phage supernatants where then neutralized with Tris pH 9.0 prior to plating on TGI bacteria and LB agar plates. Colonies were counted to determine titer followed by DNA preparation of pools of phage and NextGen sequencing. After rounds of selection, phage were pooled and amplified for iterative selection. Phage that were bound at each round were sequenced. NextGen sequencing of pools after 2, 3 and 4 rounds of selection was used to isolate candidate sequences that were analyzed further to identify those that specifically bound each unique target protein.
# Python Script Analysis: For all NEB sequence datasets, a python script was used to translate, trim, and filter the peptide sequences. The script translated the nucleotide sequences, translating amber codons as glutamine in peptide sequences, and then trimmed the end sequences that come from the vector. Secondly, the script combined the unique counts of trimmed peptides with identical sequences. […] Another python script was used to group peptides from different assays according to protein target (Myelin Protein Zero, Myelin Proteolipid Protein, Myelin Basic Protein, and Nidogen-2) and also combine the unique sequence counts for each peptide. An R script was written to merge the peptide sequences from different data files and determine peptides specific for each protein target but absent from different protein binding datasets. Peptide sequences were ranked by unique sequence count.
# [2] = molecular target: Human Myelin PLP (human) (UniProt P60201); test: phage display, NGS count
# Sequence of Human Myelin PLP (human) (P60201 2-277 limits assumed): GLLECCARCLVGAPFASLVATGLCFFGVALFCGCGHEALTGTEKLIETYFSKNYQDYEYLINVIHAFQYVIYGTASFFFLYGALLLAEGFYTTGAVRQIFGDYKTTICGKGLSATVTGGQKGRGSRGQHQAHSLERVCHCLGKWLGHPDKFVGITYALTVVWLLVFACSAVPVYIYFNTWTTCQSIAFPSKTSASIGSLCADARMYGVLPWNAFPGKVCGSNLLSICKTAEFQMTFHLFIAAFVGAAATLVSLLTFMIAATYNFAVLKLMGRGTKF
# Sequence of Human MPZ (P25189 30-153 limits assumed): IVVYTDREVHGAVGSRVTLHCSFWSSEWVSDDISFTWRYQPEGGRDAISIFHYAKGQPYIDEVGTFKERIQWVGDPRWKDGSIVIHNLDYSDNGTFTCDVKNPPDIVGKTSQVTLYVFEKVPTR
Substance,Count [1],Count [2]
FEHMAVT (Human MPZ-binding peptide),42,
TTLVVTA (Human MPZ-binding peptide),42,
CIKGEDNQC (Human MPZ-binding peptide),38,
VPLAYLR (Human MPZ-binding peptide),40,
YAPWRVF (Human MPZ-binding peptide),37,
HPFPRFD (Human MPZ-binding peptide),45,
YPQARTS (Human MPZ-binding peptide),46,
WTSVATA (Human MPZ-binding peptide),41,
KRNLWDI (Human MPZ-binding peptide),40,
NMSHSNR (Human MPZ-binding peptide),46,
STHEWRT (Human MPZ-binding peptide),45,
LISPTAR (Human MPZ-binding peptide),37,
RLQPEPT (peptide),,33
KLPTLSV (Human MPZ-binding peptide),44,
QLPRNNL (peptide),,28
LSPPRIM (Human MPZ-binding peptide),43,
VRTSMNH (peptide),,28
WSRISVD (peptide),,26
TDVEMVP (peptide),,40
IRPTHNG (peptide),,27
LPNANNL (Human MPZ-binding peptide),41,
TTTIADM (peptide),,26
MPHAPVQ (peptide),,37

Substance,Count [1],Count [2]
IHHLESS (peptide),,32
FSLDRDG (peptide),,29
HHPLFID (Human MPZ-binding peptide),39,
VVPLKWI (Human MPZ-binding peptide),40,
CSNALNKAC (Human MPZ-binding peptide),39,
FSPRDVS (Human MPZ-binding peptide),39,
VHTPYRS (Human MPZ-binding peptide),41,
VSASWMP (peptide),,27
MYHDSVS (Human MPZ-binding peptide),47,
SVLPDKL (peptide),,28
SALISTR (peptide),,32
YSDTYKH (peptide),,30
IDRVRGL (peptide),,29
EVLYPNN (peptide),,27
YTWTPSR (peptide),,28
HLDSRRH (Human MPZ-binding peptide),46,
SWDVLEL (peptide),,31
NGAYSLAIRYTS (Human MPZ-binding peptide),53,
SGVATYT (peptide),,31
LVLSNPR (Human MPZ-binding peptide),46,
WSPHGYK (peptide),,27
TFPERLR (peptide),,31
SPNTNSH (Human MPZ-binding peptide),40,

Substance,Count [1],Count [2]
QRRSVIL (peptide),,31
LVLQTTP (Human MPZ-binding peptide),37,
VPGHISG (peptide),,27
YMKHSPG (Human MPZ-binding peptide),45,
GEWRARIDQDVS (Human MPZ-binding peptide),65,
NPTSEGA (Human MPZ-binding peptide),37,
LPAESHW (Human MPZ-binding peptide),45,
TLWAQKT (peptide),,28
YSQAISA (peptide),,27
FRVTQTA (Human MPZ-binding peptide),41,
CLKQQTGDC (Human MPZ-binding peptide),37,
SVAYVPV (Human MPZ-binding peptide),46,
TTNVTEIERESY (Human MPZ-binding peptide),37,
VFPERRV (peptide),,28
GHLQSLF (peptide),,26
VTGPGTP (peptide),,26
NTASMTT (Human MPZ-binding peptide),38,
NPISPRN (Human MPZ-binding peptide),38,
CERIGPREC (Human MPZ-binding peptide),39,
KGVIPAT (peptide),,27
YEGERGA (Human MPZ-binding peptide),39,
FSTTGRG (Human MPZ-binding peptide),39,
WSPHRSF (peptide),,31

Substance,Count [1],Count [2]
VGYRSAS (peptide),,28
CRVGVTSAC (Human MPZ-binding peptide),41,
GLWGPSL (peptide),,26
GSWSSGF (Human MPZ-binding peptide),52,
TTWPNTA (Human MPZ-binding peptide),45,
GIPSSKN (peptide),,28
CGEKIMSLC (Human MPZ-binding peptide),40,
AWTMRAS (Human MPZ-binding peptide),39,
SNALSYF (Human MPZ-binding peptide),41,
ISSVTVV (Human MPZ-binding peptide),37,
DRYLLNQ (Human MPZ-binding peptide),40,
CYSSVADMC (Human MPZ-binding peptide),43,
TRASYPQ (peptide),,32
EKSTTVA (peptide),,30
GSAWKKH (peptide),,44
ADNVLRRALENI (Human MPZ-binding peptide),49,
HPLMVPS (Human MPZ-binding peptide),41,
NDASTVS (peptide),,28
AYLEDWRSMSTR (Human MPZ-binding peptide),46,
YSSRLTA (peptide),,29
LPLRLHA (peptide),,31
GKSYSQI (peptide),,31
THSTDLS (Human MPZ-binding peptide),37,

Substance,Count [1],Count [2]
FPSYTIS (Human MPZ-binding peptide),40,
ALPISYL (Human MPZ-binding peptide),42,
WPRPIQI (Human MPZ-binding peptide),41,
ARFVPLT (peptide),,30
ASLTLAL (peptide),,26
SVVYQNS (peptide),,26
HKAPLGT (peptide),,29
MIHTRQT (Human MPZ-binding peptide),41,
KTPILAS (Human MPZ-binding peptide),38,
AMSNLSY (Human MPZ-binding peptide),45,
SLPSLLP (peptide),,26
IEQVGWR (Human MPZ-binding peptide),38,
WHYTPSM (peptide),,26
HNQLLYT (Human MPZ-binding peptide),38,
LMQKPSI (peptide),,29
QPNMLKP (peptide),,33
MKIMPMD (peptide),,26
CEDRQRSMC (Human MPZ-binding peptide),40,
TQPRYPS (peptide),,28
SGHGAFR (Human MPZ-binding peptide),42,
YGQSITE (Human MPZ-binding peptide),37,
GMVSPHHSVYRH (Human MPZ-binding peptide),51,
HLHTRPT (peptide),,27

Substance,Count [1],Count [2]
QIAHLEY (Human MPZ-binding peptide),50,
CDIKDANSC (Human MPZ-binding peptide),38,
YTPNWHFRWMPA (Human MPZ-binding peptide),60,
NVFSATP (peptide),,31
DGSRDLV (peptide),,30
WNTADRL (peptide),,34
AQASSAR (peptide),,27
LNGISAL (peptide),,32
SLPGYRH (peptide),,28
AVVAMNK (peptide),,28
SGLHYAL (peptide),,32
VSSQEQA (peptide),,34
FRIDKSM (peptide),,26
LPHRLNP (peptide),,27
LPSHASI (peptide),,26
TGISSTP (peptide),,27
GPAAVII (peptide),,29
GNVFQTS (peptide),,31
